The results in this text go back to ChEMBL document CHEMBL3507680, “University of Dundee, Gates Library screen for HepG2 cell viability”.

This data set is described as follows: Human HepG2 cell viability assay in 384 well format. It is filed as toxicity, cell-based. Also noted: dose 125 nL, time 70.5 hour; cytotoxicity at 70.5 h: concentration not given beside the values. Conditions: HepG2 cells, read-out: Inhibition.
Take `CC(C)n1nc2c(cc1=O)CN(CCOc1ccccc1C#N)CC2`: the cytotoxicity at 70.5 h was determined as 6.74%. Regarding `COCCCNC(=O)CN1CCOC(c2ccccc2)C1` (configuration not stated), the cytotoxicity at 70.5 h is 15.8%. To `COCCN1CCN(CC(=O)N(C)Cc2ccccc2)CC1C` (configuration not stated) belongs 53.1%; to `CCN(Cc1cccc(NC(=O)COC)c1)C(C)=O`, 27.5%. To `O=C(NCC1CCOC1)c1csc(Cc2ccccc2)n1` (configuration not stated) belongs 19.4%; to `Cc1cccc(C)c1OCCNC(=O)CNC(=O)C1CCCC1`, 23.5%; to `COc1ccccc1-c1cc(NC(=O)CCC2CCCO2)[nH]n1` (configuration not stated), 36.9%.

For `COc1ccccc1-c1cc(NC(=O)CCS(=O)(=O)C2CCCC2)[nH]n1`, the cytotoxicity at 70.5 h is 25.9%. In the case of `COc1ccccc1-c1cc(NC(=O)COCC2CC2)[nH]n1`, the cytotoxicity at 70.5 h was -4.9%. `O=C(Cc1csc(N2CCNC2=O)n1)NCC1(c2ccccc2)CC1`: the cytotoxicity at 70.5 h worked out at 24.5%.

For the compound `O=C(Cc1csc(N2CCNC2=O)n1)NC(c1ccccc1)C1CC1` (configuration not stated), the cytotoxicity at 70.5 h was -3.72%. The value for `O=C(Cc1csc(N2CCNC2=O)n1)NC1(c2ccccc2)CCC1` was -8.91%; that for `CN(CCCc1cc(-c2cccc(F)c2)n[nH]1)C(=O)Cn1cncn1` was 22.1%; that for `C[C@@H]1CN(Cc2ccccc2)CCN1C(=O)NCc1nccs1` was 0.13%. As for `Cc1nccc(CNC(=O)N2CCN(Cc3ccccc3)C[C@H]2C)n1`, the cytotoxicity at 70.5 h was -8.68%. For the compound `CC/C=C(/C)C(=O)N1CCN(C2=NCC(C)S2)CC1` (configuration not stated), the cytotoxicity at 70.5 h turned out to be 32.7%.

Take `CN1CCC(NC(=O)Nc2ccc(F)c(Br)c2)C1=O` (configuration not stated): the cytotoxicity at 70.5 h was 21%. To `CCn1nc2c(cc1=O)CN(Cc1ccc(-n3cccn3)cc1)CC2` belongs 2.14%.

Take `CC(C)n1nc2c(cc1=O)CN(Cc1ccc(-n3cccn3)cc1)CC2`: the cytotoxicity at 70.5 h worked out at 24.1%. As for `Cc1ccc(-n2ccnc2)c(C(=O)NCCCN(C)C)c1`, the cytotoxicity at 70.5 h was found to be 2%. To `CC(CCS(C)(=O)=O)NC(=O)NCc1ccc2c(c1)CCC2` (configuration not stated) belongs -6.48%. With `Cc1cccc(C)c1OCCNC(=O)C[S+]([O-])C1CCCC1` (configuration not stated), the cytotoxicity at 70.5 h was -5.72%.

On to `O=C(c1cnns1)N1CCN(c2ccc(F)cc2Cl)CC1`, for which the cytotoxicity at 70.5 h turned out to be 4.28%.

As to `O=C(C[S+]([O-])C1CCCC1)NCCOc1cccc(Cl)c1` (configuration not stated), the cytotoxicity at 70.5 h is -6.11%. To `Cc1cc(CN2CCN(S(=O)(=O)c3c(C)c(Cl)cc(C)c3Cl)CC2)on1` belongs -9.59%; to `Cc1cc(C(=O)NCCN2CCCC(C)C2)nn1C(C)(C)C` (configuration not stated), -22.7%. The value for `CC(C)C(NC(=O)NCc1cccnc1N(C)C)c1cccs1` (configuration not stated) was -20.8%. To `CCNc1cc2c(nn1)CCN(C(=O)c1ccc(-n3cccn3)nc1)C2` belongs -15.9%; to `O=C(Cn1cc(-c2ccccc2)cn1)N1CCNC1=O`, -21.6%; to `O=C(CCOc1ccccc1F)N1CCC(O)CC1`, -9.54%.

For the compound `CC(CNC(=O)c1c[nH]nn1)Oc1ccc(Cl)cc1` (configuration not stated), the cytotoxicity at 70.5 h is -22.2%. To `NC(=O)c1cc(C2CCCN(Cc3ccc4c(c3)OCCO4)C2)n[nH]1` (configuration not stated) belongs -22.9%; to `Cc1nnc(-c2cccc(C#N)c2)n1C1CCN(C2CC2)C1=O` (configuration not stated), 46%.

Turning to `Cn1ncnc1NCc1ccc(Cl)cc1`, the cytotoxicity at 70.5 h was -9.65%. To `Cn1ncnc1NCc1ccccc1Cl` belongs -15.3%; to `CCCC(=O)NC1CCCN(Cc2cccs2)C1` (configuration not stated), -18.1%; to `CCN(CC1CCCO1)C(=O)NCCNC(=O)c1ccccc1F` (configuration not stated), 43.4%. As for `CCCN(CCc1ccccn1)C(=O)CCc1cnn(C)c1`, the cytotoxicity at 70.5 h was -10.1%.

In the case of `O=C(C1CCCN(CCc2ccc3c(c2)CCO3)C1)N1CCCC1` (configuration not stated), the cytotoxicity at 70.5 h worked out at 44.9%.

On to `CC(C)CC(c1nc(-c2cnn(C)c2)no1)N1CCCCC1=O` (configuration not stated), for which the cytotoxicity at 70.5 h is -3.04%. To `CCC(=O)NC1CCCN(Cc2ccc(NC(C)=O)cc2)C1` (configuration not stated) belongs -4.65%. To `COc1cccc(CC2CCCN2CCCO)c1` (configuration not stated) belongs -2.11%. To `CN(CC1CCN(CCO)CC1)CC(O)c1ccc(F)c(F)c1` (configuration not stated) belongs 7.09%; to `CCCNC(=O)c1cccc2ncccc12`, -4.07%; to `Cc1ccc(C(C)N(C)CCS(=O)(=O)CCC(N)=O)cc1` (configuration not stated), -6.4%. For `COc1ccc(C(C)N2CCC(C(=O)N(C)C)CC2)cc1Cl` (configuration not stated), the cytotoxicity at 70.5 h was -7.99%. To `O=C(CNc1cccc(S(=O)(=O)C(F)F)c1)Nc1ccccc1` belongs -5.1%; to `COc1ccc(C(C)N2CCC(CNC(C)=O)CC2)cc1Cl` (configuration not stated), -1.84%; to `CC(C)c1ccc(-n2cc(O)c(C(=O)O)n2)cc1`, -5.79%.

With `O=C(NCc1ccco1)Nc1cccc(S(=O)(=O)C(F)F)c1`, the cytotoxicity at 70.5 h is -8.46%. The value for `COc1ccccc1C(C)CC(=O)N1CCN(S(N)(=O)=O)CC1` (configuration not stated) was -3.69%. In the case of `CC(C)(C)[S+]([O-])CCNC(=O)c1ccc(Cl)c2cccnc12` (configuration not stated), the cytotoxicity at 70.5 h is -6.1%.

For `O=C(CNc1ccccc1S(=O)(=O)C(F)F)NCc1ccco1`, the cytotoxicity at 70.5 h is -5.76%. To `CC(=O)N1CCN(C2CCCCc3ccccc32)CC1` (configuration not stated) belongs -1.72%; to `NC(=O)N1CCCN(C2CCCCc3ccccc32)CC1` (configuration not stated), -1.64%; to `O=C(c1ccc2c(c1)[nH]c(=O)n2C1CCCC1)N1CCC1`, -3.8%.

`O=C(NCC1(O)CCOC1)NCC1(c2ccccc2Cl)CC1` (configuration not stated): the cytotoxicity at 70.5 h is -2.47%. The value for `O=C(NCC1(O)CCOC1)NCC1(c2ccccc2Cl)CCC1` (configuration not stated) was 0.471%. Take `Cn1cc(CCCN2CCN(C(=O)c3cccc(O)c3)CC2)cn1`: the cytotoxicity at 70.5 h is -3.56%. The value for `CC(=O)N1CCCN(C2CCCCc3ccccc32)CC1` (configuration not stated) was -3.31%; that for `O=C(c1ccsc1)N1CCN(CC(O)c2cccc(F)c2)CC1` (configuration not stated) was 9.92%. `Cc1ccccc1C(C)CC(=O)N1CC[C@H](O)C1` (some centres not stated): the cytotoxicity at 70.5 h was -2.39%. The value for `O=C(NCC1(O)CCOC1)c1ccccc1Cl` (configuration not stated) was -3.89%. To `COc1ccc(CC2CCCN2CCCC#N)cc1` (configuration not stated) belongs -4.33%; to `CC(=O)N1CCN(C2CCc3ccccc32)CC1` (configuration not stated), -2.55%; to `COCCN1CCC(CNC(=O)C2(C#N)CCCCC2)CC1`, -8.47%. To `O=C(c1cccs1)N1CCN(C(=O)c2ncoc2-c2ccco2)CC1` belongs 5.95%; to `CC(Oc1ccccc1C#N)C(=O)NC1CC1` (configuration not stated), -8.65%; to `CN(Cc1c(F)cccc1Cl)C(=O)CN(C)C1CCc2ccccc21` (configuration not stated), -5.53%. Take `Cc1ccsc1CNC(=O)c1ccc(N2CCNC2=O)cc1`: the cytotoxicity at 70.5 h was -10.8%.

As for `CCc1ccc(CNC(=O)c2ccc(N3CCOC3=O)cc2)s1`, the cytotoxicity at 70.5 h came out at 20.2%. To `CC(NC(=O)NCCc1cnn(C)c1)c1ccc(Cl)s1` (configuration not stated) belongs -15%. The value for `N#Cc1ccc(CN(CC(N)=O)C2CCCC2)cc1` was -9.26%. Regarding `Cc1ccc(-c2nc(CN(C)C3CCS(=O)(=O)C3)cs2)o1` (configuration not stated), the cytotoxicity at 70.5 h was -8.59%. To `COc1ccc(N2CCCN(CC(=O)N3CCNC(=O)C3)CC2)cc1` belongs -8.51%; to `N#Cc1cccnc1N1CCCN(CC(=O)N2CCNC(=O)C2)CC1`, -5.07%; to `CCc1nc(CN2CCCC(Nc3ncnc4ccsc34)C2)no1` (configuration not stated), -8.27%. The value for `N#Cc1ccccc1CN(CC(N)=O)C1CCCC1` was -7.95%. The value for `Cc1nc(CN2CCCC(Nc3ncnc4ccsc34)C2)no1` (configuration not stated) was -9.16%.

`O=C(CCC(=O)c1cccs1)NC1(C(=O)NCC2CC2)CCCC1`: the cytotoxicity at 70.5 h is -1.16%. To `O=C1C(Nc2ccc3nccnc3n2)CCN1c1ccccc1F` (configuration not stated) belongs -9.82%; to `O=C1C(Nc2ccc3nccnc3n2)CCN1c1ccccc1` (configuration not stated), -6.11%. For the compound `C=C(C)COCCNC(=O)Nc1cccc(Cn2nc(C)nc2C)c1`, the cytotoxicity at 70.5 h is 19.9%. Take `O=C1CC(Nc2ccc3nccnc3n2)CN1c1ccccc1` (configuration not stated): the cytotoxicity at 70.5 h is -2.9%. For the compound `Cc1noc(-c2cccnc2N(C)Cc2cc(C)on2)n1`, the cytotoxicity at 70.5 h is -7.15%. The value for `Cc1csc(C2(NCc3nnc(-c4ccco4)o3)CCCC2)n1` was 0.188%; that for `CCn1c(CN(C)CC(F)(F)F)nc2c(F)cccc21` was -0.949%; that for `Cc1nccn1C1CCCN(C(=O)Cn2ccc(=O)n(C)c2=O)C1` (configuration not stated) was -14.6%. The value for `CC(NCCCc1cnn(C)c1)c1ccc(Cl)s1` (configuration not stated) was 2.71%; that for `CO[C@H]1CO[C@@]2(CCCN(C(=O)N3CCCC3)C2)C1` was 1.63%; that for `Cn1cccc1C(=O)N1CCO[C@@H]2CN(Cc3ccco3)C[C@@H]2C1` was -5.04%. To `CNC(=O)NCC1CCC2(CCN(c3ncccn3)CC2)CO1` (configuration not stated) belongs -3.53%. Take `CC(C)(CNCc1ccc(OCc2cscn2)cc1)C(N)=O`: the cytotoxicity at 70.5 h was found to be 2.2%. The value for `CC(=O)N1CCCCCC1C1CCN(Cc2nnc(C(C)(C)C)o2)CC1` (configuration not stated) was -5.64%. To `Cc1nccc(NCc2cncc3c2CCN(CC2CCOC2)C3)n1` (configuration not stated) belongs 5.73%; to `Cc1noc(C)c1CN1CCc2ncnc(-c3ccc(F)cc3)c2CC1`, 2.47%. The value for `CNC(=O)NCC1CCC2(CCN(C(=O)c3cccnc3)CC2)CO1` (configuration not stated) was 3.36%; that for `Cc1noc(C)c1CN1CCC2(CC1)C(c1ccccc1)CC(=O)N2C` (configuration not stated) was -1.86%. Turning to `CS(=O)(=O)N1CCC2(CC1)CN(CC1CCOC1)c1ccccc12` (configuration not stated), the cytotoxicity at 70.5 h came out at 5.41%.

Consider `O=C(c1ccsc1)N1CCO[C@@H]2CN(Cc3ccco3)CC[C@@H]2C1`, for which the cytotoxicity at 70.5 h was 0.973%. To `O=C(Cc1cccc(F)c1)N1CCc2ncnc(NC3CC3)c2CC1` belongs 1.87%; to `O=C(NCc1ccccn1)[C@@]12CCO[C@@H]1CCN(C1CCCC1)C2`, -1.56%.
